The values below are quoted from earlier work in patent publication EP1432446B1, “METHODS FOR THE IDENTIFICATION OF POLYPEPTIDE ANTIGENS ASSOCIATED WITH DISORDERS INVOLVING ABERRANT CELL PROLIFERATION” (Genentech, Inc., priority 2001, dated 2003).

Each structure is given as a SMILES string.

For the molecule `COc1cc2cc(c1Cl)N(C)C(=O)C[C@H](OC(=O)[C@H](C)N(C)C(C)=O)[C@]1(C)O[C@H]1[C@H](C)[C@@H]1C[C@@](O)(NC(=O)O1)[C@H](OC)/C=C/C=C(\C)C2` [maytansine, Maytansine], the “adverse effects in clinical trials” value (clinical trials discontinued) is “serious adverse effects on the central nervous system and gastrointestinal system”. The associated toxicity result (in vivo) is recorded as “peripheral neuropathy”.
